Patent US12622917B2, “High-activity Wnt pathway inhibitor compound” (ADLAI NORTYE BIOPHARMA CO., LTD., priority 2020, dated 2026)

What was measured:
[1] = tested on: HepG2; test: Proliferation inhibition, HepG2 cell line; assay type: cell-based; conditions: Homo sapiens; HepG2 cells, 96 hours culture, cell viability detection; read-out: Antiproliferative IC50 HepG2
From the text: (§1) The cell lines used in the test are NCI-H929 and HepG2 cell lines whose Wnt pathway is continuously activated and whose proliferation is Wnt pathway-dependent; the inhibitory effect of the compound of the present invention on Wnt-dependent proliferation is judged.
(§2) Treat the NCI-H929 and HepG2 cell lines cultured in their respective mediums in the logarithmic growth phase, collect the cells and prepare a uniform cell suspension of known concentration, and then add the cell suspension to the 96-well cell culture plate solution so that each well contains 4000 cells. Put it into a […] incubator and incubate at 37° C. for 20-24 h. On the second day, the fully dissolved, 3-fold serially diluted compound was added to each cell culture well, so that the final maximum concentration in the cell culture well was 20 uM, and the culture was continued for 96 hours. In this test, Promega's cell viability detection test is used for detection. The more the cells proliferate, the stronger the final signal intensity will be. The detection instrument is SpectraMax, full wavelength mode. The wells only added with DMSO were used as positive control wells, and the wells that were not inoculated with cells were used as negative control wells. […] The IC50 value of cell proliferation inhibition was used to evaluate the inhibitory effect of the compound on the Wnt pathway and the toxic effect on normal cells (Table 3).

[2] = tested on: DU4475; test: Proliferation inhibition, Wnt mutant cell line DU4475; assay type: cell-based; conditions: Homo sapiens, DU-4475; DU4475, Wnt pathway-dependent, 96 hours; read-out: Antiproliferative IC50 DU4475
From the text: The cell lines used in the experiment are Colo205 and DU4475 cell lines whose Wnt pathway is continuously activated and whose proliferation is Wnt pathway-dependent; while the BELA and RKO cell lines, whose Wnt pathway is not activated under normal circumstances and the proliferation is independent of Wnt pathway, as control cell lines. It is Judged that the inhibitory effect of the compound of the present invention on Wnt-dependent proliferation is not caused by other non-specific toxicity.
Treat the Colo205, Du4475, HELA and RKO cell lines cultured in their respective mediums in the logarithmic growth phase, collect the cells and prepare a uniform cell suspension of known concentration, and then add it to the 96-well cell culture plate Cell suspension, so that each well contains 1000 cells. Put it into a 5% CO2 incubator and incubate at 37° C. for 20-24 h. On the second day, the fully dissolved, 3-fold serially diluted compound was added to each cell culture well, so that the final maximum concentration in the cell culture well was 20 uM, and the culture was continued for 96 hours. In this test, Promega's cell viability detection test is used for detection. The more the cells proliferate, the stronger the final signal intensity will be. The detection instrument is SpectraMax, full wavelength mode. The wells only added with DMSO were used as positive control wells, and the wells that were not inoculated with cells were used as negative control wells. […] The IC50 value of cell proliferation inhibition was used to evaluate the inhibitory effect of the compound on the Wnt pathway and the toxic effect on normal cells (Table 2).

[3] = tested on: RKO; test: Proliferation inhibition, non-Wnt mutant control cell line RKO; assay type: cell-based; conditions: Homo sapiens, Wnt-independent control cell line, 96 hours, read-out: Antiproliferative IC50 RKO
Method in brief: (§3)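 IC50 for growth inhibition came from a 96-hour incubation with serially diluted compound (3-fold, top 20 uM final), with cells seeded at 1000 per well the day before and read by a Promega viability assay.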

[4] = tested on: Colo205-LUC-TCF/LEF M1 reporter cell line (Wnt pathway); test: Colo205-LUC-TCF/LEF M1 reporter gene (luciferase) inhibition; assay type: cell-based; conditions: 4 hours incubation, luciferase readout
Method in brief: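 Luminescent readout of TCF/LEF-regulated luciferase after a 4 h, 37° C compound exposure in a stable Colo205 reporter clone (10,000 cells/well). Serial 3-fold dilutions started at 20 uM; IC50 derived using DMSO-treated cells and no-cell wells as controls.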

[5] = tested on: NCI-H929; test: Proliferation inhibition, NCI-H929 cell line; assay type: cell-based, human; conditions: Homo sapiens; NCI-H929 cells, 96 hours culture, cell viability detection; read-out: Antiproliferative IC50 NCI-H929
From the text: as §1, §2

[6] = tested on: Colo205; test: Proliferation inhibition, Wnt mutant cell line Colo205; assay type: cell-based; conditions: Homo sapiens, COLO 205; Colo205, Wnt pathway-dependent, 96 hours; read-out: Antiproliferative IC50 Colo205
Method in brief: as §3

IC50 [1] [nM] | IC50 [4] [nM] | IC50 [5] [nM] | IC50 [6] [nM] | SMILES | IC50 [2] [nM] | IC50 [3] [nM]
69 | 30 | 17 | 36 | CCN1c2nc(NCc3ccc(Oc4ccc(C(F)(F)F)nc4)nc3)nc3c2N(CCC3)C(=O)[C@@H]1C [116 (W249), (S)-4-ethyl-5-methyl-2-(((6-((6-(trifluoromethyl)pyridin-3-yl)oxo)pyridin-3-yl)methyl)amino)-4,5,9,10-tetrahydro-6H,8H-pyrido[3,2,1-de]pteridin-6-one] | 46 | > 10000
2.1 | 11 | 6.4 | 7.9 | CN1c2nc(NCc3ccc(Oc4ccc(C(F)(F)F)nc4)nc3)nc3c2N(CCC3)C(=O)[C@@H]1CC(F)(F)F [190 (W317)] | < 0.5 | > 10000
26 | 20 | 89 | 17.4 | CN1c2nc(NCc3ccc(Oc4cnc(C(F)(F)F)nc4)nc3)nc3c2N(CCC3)C(=O)[C@@H]1c1ccccc1 [172 (W305)] | 5.8 | > 10000
9.8 | 50 | 26 | 11 | CN1c2nc(NCc3ccc(Oc4cnc(C(F)(F)F)nc4)nc3)nc3c2N(CCC3)C(=O)[C@@H]1C(C)(C)F [151 (W332)] | 13 | > 10000
35 | 26 | 68 | 29 | CCN1c2nc(NCc3ccc(Oc4cnc(C(F)(F)F)nc4)nc3)nc3c2N(CCC3)C(=O)[C@@H]1C [168 (W298)] | 11 | > 10000
2 | 9 | 28 | 6.9 | CN1c2nc(NCc3ccc(Oc4cnc(C(F)(F)F)nc4)nc3)nc3c2N(CCC3)C(=O)[C@@H]1CC(F)(F)F [199 (W319)] | < 0.5 | > 10000
19 | 15 | 37 | 21 | CCN1c2nc(NCc3ccc(Oc4cc(C(F)(F)F)nn4C)nc3)nc3c2N(CCC3)C(=O)[C@@H]1C [153 (W293)] | 3.9 | > 10000
21 | 23 | 31 | 16 | CCN1c2nc(NCc3ccc(Oc4cnc(C(F)(F)F)nc4)nc3)nc3c2N(CCC3)C(=O)[C@@H]1C1CC1 [166 (W287)] | 4.8 | 4820
6.8 | 12 | 28 | 6 | CN1c2nc(NCc3ccc(Oc4cnc(C(F)(F)F)nc4)nc3)nc3c2N(CCC3)C(=O)[C@@H]1C1CC1 [167 (W289)] | 0.6 | > 10000
27 | 19 | 78 | 18.6 | C[C@H]1C(=O)N2CCCc3nc(NCc4ccc(Oc5cc(C(F)(F)F)nn5C)nc4)nc(c32)N1C [128 (W263), (S)-4,5-dimethyl-2-(((6-((1-methyl-3-(trifluoromethyl)-1H-pyrazol-5-yl)oxo)pyridine-3-yl)methyl)amino)-4,5,9,10-tetrahydro-6H,8H-pyrido[3,2,1-de]pteridin-6-one] | 4.1 | > 10000
18 | 15 | 55 | 7.8 | CN1c2nc(NCc3ccc(Oc4ccc(C(F)(F)F)nc4)nc3)nc3c2N(CCC3)C(=O)[C@@H]1C1CC1 [120 (W265)] | 0.5 | > 10000
16 | 5 | 83 | 8.5 | CCN1c2nc(NCc3ccc(Oc4ccc(C(F)(F)F)nc4)nc3)nc3c2N(CCC3)C(=O)[C@@H]1C(C)C [118 (W279), (S)-4-ethyl-5-isopropyl-2-(((6-((6-(trifluoromethyl)pyridin-3-yl)oxo)pyridin-3-yl)methyl)amino)-4,5,9,10-tetrahydro-6H,8H-pyrido[3,2,1-de]pteridin-6-one] | 6.5 | > 10000
81 | 34 | 87 | 31 | CC[C@H]1C(=O)N2CCCc3nc(NCc4ccc(Cn5ccc(C(F)(F)F)n5)nc4)nc(c32)N1C [146 (W273)] | 18 | > 10000
42 | 20 | 75 | 21 | CN1c2nc(NCc3ccc(Oc4ccc(C(F)(F)F)nc4)nc3)nc3c2N(CCC3)C(=O)[C@@H]1c1ccccc1 [127 (W280), (S)-4-methyl-5-phenyl-2-(((6-((6-(trifluoromethyl)pyridin-3-yl)oxo)pyridin-3-yl)methyl)amino)-4,5,9,10-tetrahydro-6H,8H-pyrido[3,2,1-de]pteridin-6-one] | 42 | > 10000
2.7 | 10 | 39 | 9.1 | C[C@H](F)[C@H]1C(=O)N2CCCc3nc(NCc4ccc(Oc5ccc(C(F)(F)F)nc5)nc4)nc(c32)N1C [126 (W308), (R)-5-((S)-1-fluoroethyl)-4-methyl-2-(((6-((6-(trifluoromethyl)pyridin-3-yl)oxo)pyridine-3-yl)methyl)amino)-4,5,9,10-tetrahydro-6H,8H-pyrido[3,2,1-de]pteridin-6-one] | < 0.5 | > 10000
11 | 14 | 31 | 12 | [2H]C([2H])([2H])N1c2nc(NCc3ccc(Oc4cnc(C(F)(F)F)nc4)nc3)nc3c2N(CCC3)C(=O)[C@@H]1C1CC1 [165 (W286)] | 0.6 | > 10000
1.2 | 7 | 54 | 1.4 | [2H]C([2H])([2H])N1c2nc(NCc3ccc(Oc4ccc(C(F)(F)F)nc4)nc3)nc3c2N(CCC3)C(=O)[C@@H]1CC(F)(F)F [196 (W344)] | < 0.5 | > 10000
16 | 9 | 22 | 4.6 | CC[C@H]1C(=O)N2CCCc3nc(NCc4ccc(Oc5cnc(C(F)(F)F)nc5)nc4)nc(c32)N1C [161 (W269)] | < 0.5 | > 10000
7.5 | 26 | 26 | 5 | [2H]C([2H])([2H])N1c2nc(NCc3ccc(Oc4cnc(C(F)(F)F)nc4)nc3)nc3c2N(CCC3)C(=O)[C@@H]1CC(F)F [164 (W326)] | 5 | > 10000
7 | 16 | 31 | 5 | [2H]C([2H])([2H])N1c2nc(NCc3ccc(Oc4ccc(C(F)(F)F)nc4)nc3)nc3c2N(CCC3)C(=O)[C@@H]1CC(F)F [163 (W325)] | 4.7 | > 10000
5.4 | 7 | 28 | 7.5 | CC[C@H]1C(=O)N2CCCc3nc(NCc4ccc(Oc5ccc(C(F)(F)F)nc5)nc4)nc(c32)N1C [119 (W255), (S)-5-ethyl-4-methyl-2-(((6-((6-(trifluoromethyl)pyridin-3-yl)oxo)pyridin-3-yl)methyl)amino)-4,5,9,10-tetrahydro-6H,8H-pyrido[3,2,1-de]pteridin-6-one] | 2.3 | > 10000
